These results are taken from US11008572B2, “Methods and compositions for modulating splicing” (SKYHAWK THERAPEUTICS, INC., priority 2017, dated 2021).

SMILES strings stand for the structures. Some results are limits rather than exact numbers.

In the first assay the test system is A-673 cells. Kind of assay: Cell viability, crystal violet staining. The class given is cell-based. The following applies: Homo sapiens, A673, cell viability, read-out: A-673 IC50 (nM) Cell viability. As for the experimental part: To measure cell viability, cells were plated in 96-well plastic tissue culture plates at a density of 5×10^3 cells/well. Twenty-four hours after plating, cells were treated with various SMSMs. After 72 hours, the cell culture media were removed and plates were stained with […] of a solution containing 0.5% crystal violet and 25% methanol, rinsed with deionized water, dried overnight, and resuspended in […] citrate buffer (0.1 M sodium citrate in 50% ethanol) to assess plating efficiency. Intensity of crystal violet staining, assessed at 570 nm and quantified using a Vmax Kinetic Microplate Reader and Softmax software (Molecular Devices Corp., Menlo Park, Calif.), were directly proportional to cell number. Data were normalized to vehicle-treated cells and were presented as the mean±SE from representative experiments. SMSMs that are effective were determined for various cells lines.
A-673 cell viability […], splicing (IC50) and brain AUC/Plasma AUC of SMSMs were determined. As shown in the tables below SMSMs had high CNS exposure.
Turning to `CN(c1ccc(-c2ccc(-c3ccnc(OC(F)F)c3)cc2O)nn1)[C@H]1C[C@]2(C)CC[C@](C)(C1)N2` [compound 185, 5-(2-(difluoromethoxy)pyridin-4-yl)-2-(6-(((1R,3s,5S)-1,5-dimethyl-8-azabicyclo[3.2.1]octan-3-yl)(methyl)amino)pyridazin-3-yl)phenol], the IC50 lay within 501 to 1000 nM.

Consider `CN(c1ccc(-c2ccc(-n3cnc(C#N)c3)cc2O)nn1)[C@H]1C[C@]2(C)CC[C@](C)(C1)N2` [compound 196, 1-(4-(6-(((1R,3s,5S)-1,5-dimethyl-8-azabicyclo[3.2.1]octan-3-yl)(methyl)amino)pyridazin-3-yl)-3-hydroxyphenyl)-1H-imidazole-4-carbonitrile], for which the IC50 was in the range of 251 to 500 nM.

Regarding `[2H]C([2H])([2H])n1cc(-c2ccc(-c3ccc(N(C)[C@H]4C[C@]5(C)CC[C@](C)(C4)N5)nn3)c(O)c2)cn1` [compound 171, 2-(6-(((1R,3s,5S)-1,5-dimethyl-8-azabicyclo[3.2.1]octan-3-yl)(methyl)amino)pyridazin-3-yl)-5-(1-(methyl-d3)-1H-pyrazol-4-yl)phenol], the IC50 was in the range of 10 to 100 nM.

With `[2H]C([2H])([2H])Oc1cc(-c2ccc(-c3ccc(N(C)[C@H]4C[C@]5(C)CC[C@](C)(C4)N5)nn3)c(O)c2)cc(F)n1` [compound 207, 2-(6-(((1R,3s,5S)-1,5-dimethyl-8-azabicyclo[3.2.1]octan-3-yl)(methyl)amino)pyridazin-3-yl)-5-(2-fluoro-6-(methoxy-d3)pyridin-4-yl)phenol], the IC50 was in the range of 10 to 100 nM.

`CN(c1ccc(-c2ccc(-n3ccc(C#N)c3)cc2O)nn1)[C@H]1C[C@]2(C)CC[C@](C)(C1)N2` [compound 203, 1-(4-(6-(((1R,3s,5S)-1,5-dimethyl-8-azabicyclo[3.2.1]octan-3-yl)(methyl)amino)pyridazin-3-yl)-3-hydroxyphenyl)-1H-pyrrole-3-carbonitrile]: the IC50 was 10 to 100 nM.

With `COc1cc(-c2ccc(-c3ccc(N(C)[C@H]4C[C@]5(C)CC[C@](C)(C4)N5)nn3)c(O)c2)ccc1F` [compound 210, 4-(6-(((1R,3s,5S)-1,5-dimethyl-8-azabicyclo[3.2.1]octan-3-yl)(methyl)amino)pyridazin-3-yl)-4′-fluoro-3′-methoxy-[1,1′-biphenyl]-3-ol], the IC50 was 251 to 500 nM.

For `CN(c1ccc(-c2ccc(-c3cc[nH]c(=O)c3)cc2O)nn1)[C@H]1C[C@]2(C)CC[C@](C)(C1)N2` [compound 183, 4-(4-(6-(((1R,3s,5S)-1,5-dimethyl-8-azabicyclo[3.2.1]octan-3-yl)(methyl)amino)pyridazin-3-yl)-3-hydroxyphenyl)pyridin-2(1H)-one], the IC50 fell in the range of 10 to 100 nM.

Turning to `COc1cncc(-c2ccc(-c3ccc(N(C)[C@H]4C[C@]5(C)CC[C@](C)(C4)N5)nn3)c(O)c2)c1` [compound 211, 2-(6-(((1R,3s,5S)-1,5-dimethyl-8-azabicyclo[3.2.1]octan-3-yl)(methyl)amino)pyridazin-3-yl)-5-(5-methoxypyridin-3-yl)phenol], the IC50 was in the range of 251 to 500 nM.

Turning to `CN(c1ccc(-c2ccc(-c3cc(O)nc(F)c3)cc2O)nn1)[C@H]1C[C@]2(C)CC[C@](C)(C1)N2` [compound 190, 4-(4-(6-(((1R,3s,5S)-1,5-dimethyl-8-azabicyclo[3.2.1]octan-3-yl)(methyl)amino)pyridazin-3-yl)-3-hydroxyphenyl)-6-fluoropyridin-2-ol], the IC50 is 101 to 250 nM.

For the compound `COc1cc(-c2ccc(-c3ccc(N(C)[C@H]4C[C@]5(C)CC[C@](C)(C4)N5)nn3)c(O)c2)cc(F)n1` [compound 189, 2-(6-(((1R,3s,5S)-1,5-dimethyl-8-azabicyclo[3.2.1]octan-3-yl)(methyl)amino)pyridazin-3-yl)-5-(2-fluoro-6-methoxypyridin-4-yl)phenol], the IC50 lay in the range of 10 to 100 nM.

For the compound `CN(c1ccc(-c2cc(F)c(-c3ccn(CF)c(=O)c3)cc2O)nn1)[C@H]1C[C@]2(C)CC[C@](C)(C1)N2` [compound 193, 4-(4-(6-(((1R,3s,5S)-1,5-dimethyl-8-azabicyclo[3.2.1]octan-3-yl)(methyl)amino)pyridazin-3-yl)-2-fluoro-5-hydroxyphenyl)-1-(fluoromethyl)pyridin-2(1H)-one], the IC50 is < 10 nM.

`CN(c1ccc(-c2ccc(-n3cc(C#N)cn3)cc2O)nn1)[C@H]1C[C@]2(C)CC[C@](C)(C1)N2` [compound 200, 1-(4-(6-(((1R,3s,5S)-1,5-dimethyl-8-azabicyclo[3.2.1]octan-3-yl)(methyl)amino)pyridazin-3-yl)-3-hydroxyphenyl)-1H-pyrazole-4-carbonitrile]: the IC50 lay in the range of 101 to 250 nM.

Turning to `Oc1cc(-c2cn[nH]c2)ccc1-c1ccc(N2CCC23CCNCC3)nn1` [compound 132, 2-(6-(1,7-diazaspiro[3.5]nonan-1-yl)pyridazin-3-yl)-5-(1H-pyrazol-4-yl)phenol], the IC50 was > 1000 nM.

As to `CCN(c1ccc(-c2ccc(-c3cn[nH]c3)cc2O)nn1)[C@H]1C[C@]2(C)CC[C@](C)(C1)N2` [compound 201, 2-(6-(((1R,3s,5S)-1,5-dimethyl-8-azabicyclo[3.2.1]octan-3-yl)(ethyl)amino)pyridazin-3-yl)-5-(1H-pyrazol-4-yl)phenol], the IC50 was in the range of 10 to 100 nM.

Still in this assay, the particulars now being: Homo sapiens, A673, cell viability, read-out: A-673 IC50 (nM), Cell viability.
For `COc1cc(-c2ccc(-c3ccc(N(C)[C@@H]4C[C@H]5CCC[C@@H](C4)N5)nn3)c(O)c2)ccc1C` [compound 292, 4-(6-(((1R,3s,5S)-9-azabicyclo[3.3.1]nonan-3-yl)(methyl)amino)pyridazin-3-yl)-3′-methoxy-4′-methyl-[1,1′-biphenyl]-3-ol], the half-maximal inhibitory concentration (IC50) was > 1000 nM.

Consider `CN(c1ccc(-c2ccc(-n3ccnc3)cc2O)nn1)[C@@H]1C[C@H]2CCC[C@@H](C1)N2` [compound 272, 2-(6-(((1R,3s,5S)-9-azabicyclo[3.3.1]nonan-3-yl)(methyl)amino)pyridazin-3-yl)-5-(1H-imidazol-1-yl)phenol], for which the IC50 was 10 to 100 nM.

Regarding `CN(c1ccc(-c2ccc(-c3ccn(CF)c(=O)c3)cc2O)nn1)[C@@H]1C[C@H]2CCC[C@@H](C1)N2` [compound 291, 4-(4-(6-(((1R,3s,5S)-9-azabicyclo[3.3.1]nonan-3-yl)(methyl)amino)pyridazin-3-yl)-3-hydroxyphenyl)-1-(fluoromethyl)pyridin-2(1H)-one], the IC50 was < 10 nM.

In the case of `CN(c1ccc(-c2ccc(-c3cc[nH]c(=O)c3)cc2O)nn1)[C@@H]1C[C@H]2CCC[C@@H](C1)N2` [compound 293, 4-(4-(6-(((1R,3s,5S)-9-azabicyclo[3.3.1]nonan-3-yl)(methyl)amino)pyridazin-3-yl)-3-hydroxyphenyl)pyridin-2(1H)-one], the IC50 lay in the range of 10 to 100 nM.

Consider `[2H]C([2H])([2H])Oc1cc(-c2ccc(-c3ccc(N(C)[C@H]4C[C@]5(C)CCC[C@](C)(C4)N5)nn3)c(O)c2)cnn1` [compound 268, 2-(6-(((1R,3s,5S)-1,5-dimethyl-9-azabicyclo[3.3.1]nonan-3-yl)(methyl)amino)pyridazin-3-yl)-5-(6-(methoxy-d3)pyridazin-4-yl)phenol], for which the IC50 was < 10 nM.

Consider `CN(c1ccc(-c2cc3cc(C(=O)NC4CC4)oc3cc2O)nn1)[C@@H]1C[C@H]2CCC[C@@H](C1)N2` [compound 299, 5-(6-(((1R,3s,5S)-9-azabicyclo[3.3.1]nonan-3-yl)(methyl)amino)pyridazin-3-yl)-N-cyclopropyl-6-hydroxybenzofuran-2-carboxamide], for which the IC50 lay within 10 to 100 nM.

As to `CN(c1ccc(-c2ccc(-c3cnn(C(F)F)c3)cc2O)nn1)[C@@H]1C[C@H]2CCC[C@@H](C1)N2` [compound 301, 2-(6-(((1R,3s,5S)-9-azabicyclo[3.3.1]nonan-3-yl)(methyl)amino)pyridazin-3-yl)-5-(1-(difluoromethyl)-1H-pyrazol-4-yl)phenol], the concentration for half-maximal inhibition (IC50) fell in the range of 10 to 100 nM.

For the compound `[2H]C([2H])([2H])n1cc(-c2ccc(-c3ccc(N(C)[C@@H]4C[C@H]5CCC[C@@H](C4)N5)nn3)c(O)c2)cn1` [compound 288, 2-(6-(((1R,3s,5S)-9-azabicyclo[3.3.1]nonan-3-yl)(methyl)amino)pyridazin-3-yl)-5-(1-(methyl-d3)-1H-pyrazol-4-yl)phenol], the IC50 lay in the range of 10 to 100 nM.

In the case of `Cc1ccc(-c2ccc(-c3ccc(N(C)[C@@H]4C[C@H]5CC[C@@H](C4)N5)nn3)c(O)c2)cn1` [compound 236, 2-(6-(((1R,3s,5S)-8-azabicyclo[3.2.1]octan-3-yl)(methyl)amino)pyridazin-3-yl)-5-(6-methylpyridin-3-yl)phenol], the IC50 fell in the range of 101 to 250 nM.

As to `CNC(=O)c1cc2cc(-c3ccc(N(C)[C@@H]4C[C@H]5CCC[C@@H](C4)N5)nn3)c(O)cc2o1` [compound 297, 5-(6-(((1R,3s,5S)-9-azabicyclo[3.3.1]nonan-3-yl)(methyl)amino)pyridazin-3-yl)-6-hydroxy-N-methylbenzofuran-2-carboxamide], the IC50 was 10 to 100 nM.

On to `CN(c1ccc(-c2cc(F)c(-c3cnn(C)c(=O)c3)cc2O)nn1)[C@@H]1C[C@H]2CCC[C@@H](C1)N2` [compound 286, 5-(4-(6-(((1R,3s,5S)-9-azabicyclo[3.3.1]nonan-3-yl)(methyl)amino)pyridazin-3-yl)-2-fluoro-5-hydroxyphenyl)-2-methylpyridazin-3(2H)-one], for which the IC50 is < 10 nM.

For the compound `CNC(=O)c1cc2cc(-c3ccc(N(C)[C@H]4C[C@]5(C)CCC[C@](C)(C4)N5)nn3)c(O)cc2o1` [compound 261, 5-(6-(((1R,3s,5S)-1,5-dimethyl-9-azabicyclo[3.3.1]nonan-3-yl)(methyl)amino)pyridazin-3-yl)-6-hydroxy-N-methylbenzofuran-2-carboxamide], the IC50 lay within 10 to 100 nM.

The assay is the same for the next values; noted with them: Homo sapiens, A673, read-out: A-673 cell viability (IC50).
Regarding `CN(c1ccc(-c2cc(F)c(-c3ccn(CF)c(=O)c3)cc2O)nn1)[C@H]1C[C@]2(C)CC[C@](C)(C1)N2` [compound 193, 4-(4-(6-(((1R,3s,5S)-1,5-dimethyl-8-azabicyclo[3.2.1]octan-3-yl)(methyl)amino)pyridazin-3-yl)-2-fluoro-5-hydroxyphenyl)-1-(fluoromethyl)pyridin-2(1H)-one], the IC50 is < 3 nM.
